Source: paper PMC5626944 (Frontiers in Pharmacology, 2017)
Like-named read-outs stand apart in the source and are kept apart here.

Assays:
α4-GFPβ2DM nAChRs = target: T1, α4-GFPβ2DM nAChRs (Mus musculus, UniProt O70174+Q9ERK7, L349M/R365A/R366A/R368A); experiment: Whole-cell patch-clamp recordings in transfected neuro-2a cells; assay type: cell-based; conditions: α4β2 single component, transfected in Neuro-2a cells
T1 construct: expressed in transfected cells; host or cells: mouse neuroblastoma neuro-2a (ATCC CCL-131)
T1 sequence (O70174 31-629): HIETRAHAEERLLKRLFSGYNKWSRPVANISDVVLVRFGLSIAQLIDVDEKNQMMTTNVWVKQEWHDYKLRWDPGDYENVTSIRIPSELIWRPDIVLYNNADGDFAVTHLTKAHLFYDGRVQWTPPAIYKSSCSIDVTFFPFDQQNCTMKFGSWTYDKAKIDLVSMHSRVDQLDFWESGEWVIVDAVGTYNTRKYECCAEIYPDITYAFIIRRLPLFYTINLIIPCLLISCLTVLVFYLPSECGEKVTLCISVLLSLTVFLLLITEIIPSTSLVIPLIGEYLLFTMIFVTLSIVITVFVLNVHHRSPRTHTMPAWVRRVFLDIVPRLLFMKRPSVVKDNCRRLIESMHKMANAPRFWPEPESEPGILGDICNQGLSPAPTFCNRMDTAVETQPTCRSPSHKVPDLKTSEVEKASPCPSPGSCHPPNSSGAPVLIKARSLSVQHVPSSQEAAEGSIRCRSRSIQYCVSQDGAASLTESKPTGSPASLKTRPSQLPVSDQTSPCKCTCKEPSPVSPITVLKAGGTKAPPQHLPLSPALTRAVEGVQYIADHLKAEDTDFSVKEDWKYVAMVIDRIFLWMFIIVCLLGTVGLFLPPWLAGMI
T1 sequence (Q9ERK7 26-501 L349M/R365A/R366A/R368A): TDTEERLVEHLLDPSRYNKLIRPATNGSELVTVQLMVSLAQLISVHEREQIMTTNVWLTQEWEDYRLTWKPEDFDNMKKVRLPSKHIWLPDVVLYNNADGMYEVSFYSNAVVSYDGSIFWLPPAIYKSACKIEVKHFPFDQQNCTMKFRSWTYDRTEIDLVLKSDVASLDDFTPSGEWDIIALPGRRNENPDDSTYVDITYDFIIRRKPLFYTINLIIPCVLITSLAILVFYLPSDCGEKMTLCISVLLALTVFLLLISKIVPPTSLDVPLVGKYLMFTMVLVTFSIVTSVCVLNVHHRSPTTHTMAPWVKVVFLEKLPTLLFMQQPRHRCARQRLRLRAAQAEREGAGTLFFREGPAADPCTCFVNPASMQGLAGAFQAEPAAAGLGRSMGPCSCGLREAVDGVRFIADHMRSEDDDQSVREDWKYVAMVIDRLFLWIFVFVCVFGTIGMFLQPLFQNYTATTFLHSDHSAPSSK
Description: (§1) Cells were transfected with 500 ng of: α4-GFP and β2DM or α6-GFP, β2DM, and β3 nAChR subunits.
(§2) For the patch-clamp experiments, we used mouse neuro-2a cells. […] Transfected cells displaying eGFP fluorescence were identified for patching using an inverted epifluorescence microscope. […] The resistance of the patch pipettes was 2–4 MΩ. The extracellular solution contained (in mM): 140 NaCl, 5 KCl, 2 CaCl2, 1 MgCl2, 10 HEPES, and 10 glucose (320 mOsm, pH set to 7.3 with Tris-base). […] The data were sampled at 10 kHz and low-pass filtered at 2 kHz prior to digitization. All experiments were performed at 24°C and the recording chamber was continually perfused with extracellular solution. To avoid receptor desensitization by repetitive agonist application, agonists were applied at intervals ≥3 min. An Octaflow II superfusion system (ALA Scientific Instruments) was used to apply the agonist for concentration-response studies. Applications were 500 ms at 6 psi. […] Following the collection of the full concentration range an additional test pulse was repeated to assess accumulated desensitization.
(§3) Data were fit to a single Hill term using Origin 10 software. Data are expressed as mean ± SEM.

α6-GFPβ2DMβ3 nAChRs = target: T2, α6-GFPβ2DMβ3 nAChRs (Mus musculus, UniProt Q9ERK7+Q9R0W9, L349M/R365A/R366A/R368A); experiment: as above; assay type: cell-based
T2 construct: expressed in transfected cells; host or cells: mouse neuroblastoma neuro-2a (ATCC CCL-131)
T2 sequence (Q8BMN3 31-464, stated change not applied): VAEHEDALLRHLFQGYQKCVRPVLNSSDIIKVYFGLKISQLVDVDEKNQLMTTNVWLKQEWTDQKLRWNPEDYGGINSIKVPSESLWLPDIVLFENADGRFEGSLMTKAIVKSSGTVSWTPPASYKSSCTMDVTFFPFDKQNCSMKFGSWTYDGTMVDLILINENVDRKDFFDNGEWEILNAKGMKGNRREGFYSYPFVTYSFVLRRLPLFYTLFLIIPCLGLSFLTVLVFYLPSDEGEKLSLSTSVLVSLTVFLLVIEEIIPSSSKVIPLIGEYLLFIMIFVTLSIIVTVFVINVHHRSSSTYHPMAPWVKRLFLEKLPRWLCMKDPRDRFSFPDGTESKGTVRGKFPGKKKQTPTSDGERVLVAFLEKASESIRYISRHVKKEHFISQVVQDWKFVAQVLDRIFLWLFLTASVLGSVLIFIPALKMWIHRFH
T2 sequence (Q9R0W9 31-494): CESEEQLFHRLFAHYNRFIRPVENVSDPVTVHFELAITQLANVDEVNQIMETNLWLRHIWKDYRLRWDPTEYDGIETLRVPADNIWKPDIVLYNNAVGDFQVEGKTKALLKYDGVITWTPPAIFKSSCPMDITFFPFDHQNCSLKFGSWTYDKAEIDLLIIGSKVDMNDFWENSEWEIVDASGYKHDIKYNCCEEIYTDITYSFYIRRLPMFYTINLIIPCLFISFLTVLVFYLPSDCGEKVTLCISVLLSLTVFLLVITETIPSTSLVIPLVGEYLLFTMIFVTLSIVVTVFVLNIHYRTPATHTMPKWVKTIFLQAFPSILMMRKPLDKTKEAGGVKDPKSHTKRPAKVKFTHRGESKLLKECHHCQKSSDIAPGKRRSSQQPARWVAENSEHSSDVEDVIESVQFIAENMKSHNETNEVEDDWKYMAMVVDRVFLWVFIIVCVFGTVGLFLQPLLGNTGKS
T2 sequence (Q9ERK7 26-501 L349M/R365A/R366A/R368A): as the sequence (Q9ERK7 26-501 L349M/R365A/R366A/R368A) above
Description: as §1, §2, §3

α3β4* nAChRs [1] = target: T3, α3β4* nAChRs (Mus musculus, UniProt Q8R493+Q8R4G9); experiment: [3H]ACh release from interpeduncular nucleus synaptosomes; assay type: biochemical; conditions: IPN synaptosomes
T3 construct: from tissue
T3 sequence (Q8R4G9 26-499): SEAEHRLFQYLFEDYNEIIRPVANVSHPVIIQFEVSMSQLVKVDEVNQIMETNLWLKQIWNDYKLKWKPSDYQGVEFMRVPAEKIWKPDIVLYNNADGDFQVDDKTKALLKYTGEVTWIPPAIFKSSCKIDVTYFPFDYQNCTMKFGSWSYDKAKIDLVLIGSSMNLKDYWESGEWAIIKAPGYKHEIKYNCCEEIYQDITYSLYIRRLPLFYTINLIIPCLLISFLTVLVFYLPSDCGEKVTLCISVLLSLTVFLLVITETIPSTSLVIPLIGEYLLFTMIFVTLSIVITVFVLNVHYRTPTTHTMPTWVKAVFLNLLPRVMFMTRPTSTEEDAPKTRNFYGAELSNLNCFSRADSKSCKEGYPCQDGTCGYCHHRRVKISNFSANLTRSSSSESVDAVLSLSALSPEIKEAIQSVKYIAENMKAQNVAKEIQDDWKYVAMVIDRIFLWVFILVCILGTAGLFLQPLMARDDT
T3 sequence (Q8R493 21-495): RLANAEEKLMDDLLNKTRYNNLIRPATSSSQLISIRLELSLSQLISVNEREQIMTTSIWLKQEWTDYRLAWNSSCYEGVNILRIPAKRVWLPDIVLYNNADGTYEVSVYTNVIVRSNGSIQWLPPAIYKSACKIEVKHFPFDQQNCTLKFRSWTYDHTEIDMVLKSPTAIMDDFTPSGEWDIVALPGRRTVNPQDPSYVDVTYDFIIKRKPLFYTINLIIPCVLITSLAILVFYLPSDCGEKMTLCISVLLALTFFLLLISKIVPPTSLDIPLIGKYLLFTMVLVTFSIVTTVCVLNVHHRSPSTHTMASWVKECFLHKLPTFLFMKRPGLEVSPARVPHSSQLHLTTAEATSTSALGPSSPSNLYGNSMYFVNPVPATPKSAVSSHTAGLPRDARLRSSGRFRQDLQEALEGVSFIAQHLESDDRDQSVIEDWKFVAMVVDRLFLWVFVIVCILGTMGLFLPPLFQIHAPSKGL
Description: Regions of interest were dissected from fresh mouse brains and homogenized in ice-cold isotonic sucrose (0.32 M), buffered with HEPES (5 mM, pH 7.5). The suspension was centrifuged at 12,000 × g for 20 min. The pellet was re-suspended in the appropriate uptake buffer ([Grady et al., 2001]; [Salminen et al., 2004]; [Marks et al., 2006]) and used immediately.
Previously published methods for [^3H]ACh release from crude IPN synaptosomes were followed ([Grady et al., 2001]). Agonist-stimulated ^86Rb^+ efflux from synaptosomes was measured using previously described methods ([Marks et al., 1999], [2007]).

α4β2 (α5KO) nAChRs = target: T4, α4β2 (α5KO) nAChRs (Mus musculus, UniProt O70174+Q9ERK7); experiment: 86Rb+ efflux from α5KO thalamic and cortical synaptosomes; assay type: biochemical
T4 construct: from tissue; host or cells: thalamic and cortical synaptosomes of α5KO mice
T4 sequence (O70174 31-629): as the sequence (O70174 31-629) above
T4 sequence (Q9ERK7 26-501): as the sequence (Q9ERK7 26-501 L349M/R365A/R366A/R368A) above, with M324L, A340R, A341R, A343R counted along it
Description: Regions of interest were dissected from fresh mouse brains and homogenized in ice-cold isotonic sucrose (0.32 M), buffered with HEPES (5 mM, pH 7.5). The suspension was centrifuged at 12,000 × g for 20 min.

α3β4* nAChRs [2] = target: T3, α3β4* nAChRs; experiment: [125I]epibatidine binding, IPN membranes from β2KO mice
Description: The methods used for preparing brain membranes in hypotonic buffer have been described previously ([Marks et al., 1998], [2007]). Brain membrane preparations were stored as pellets under buffer at -70°C or used immediately. We followed previously published methods for [^125I]epibatidine binding and analysis ([Grady et al., 2010]).

WT mice = experiment: Marble burying assay; assay type: in vivo, mouse; conditions: 0.3 mg/kg ip
Adrenergic, Alpha 1B = tested on: T5, Adrenergic, Alpha 1B; experiment: NovaScreen competition binding; conditions: 1 µM
T5 construct: PerkinElmer – Caliper Life Sciences (NovaScreen service)

Adrenergic, Alpha 2B = experiment: NovaScreen competition binding; conditions: 1 µM
GABA-B = tested on: T6, GABA-B; experiment: NovaScreen competition binding; conditions: 1 µM
T6 construct: PerkinElmer – Caliper Life Sciences (NovaScreen)

[3] = tested on: Glutamate, NMDA, Phencyclidine Site (Ionotropic); experiment: NovaScreen competition binding; conditions: 1 µM
Serotonin Transporter = experiment: NovaScreen competition binding; conditions: 1 µM
Serotonin, 5HT2C = experiment: NovaScreen competition binding; conditions: 1 µM
Calcium Channel, Type N = experiment: NovaScreen competition binding; conditions: 1 µM
[4] = tested on: Nicotinic, Neuronal (α-BnTx insensitive); experiment: NovaScreen competition binding; conditions: 1 µM
Source text: (§4) Assays included the nicotinic drug [^3H]epibatidine binding to α-bungarotoxin-insensitive nAChRs, the 5-HT3 inhibitor [N-methyl-^3H]GR65630 to mouse receptors in N1E-115 cells, and human receptors expressed in a clonal cell line. Other assays included monoamine oxidase A, monoamine oxidase B, 5-HT transporter, norepinephrine transporter, and dopamine transporter, as well as other. G-protein-coupled receptors, ion channels, enzymes, and transporters.

[5] = tested on: Potassium Channel, ATP-Sensitive; experiment: NovaScreen competition binding; conditions: 1 µM
Source text: as §4

[6] = tested on: Potassium Channel, I[Kr] (hERG) (h); experiment: NovaScreen competition binding; set-up: species or system human; conditions: 1 µM
[7] = tested on: hERG potassium channel (IKr); experiment: NovaScreen competition binding; set-up: species or system human; conditions: human, probe [3H]Astemizole, [3H]Astemizole
Esterase, Acetylcholine = experiment: NovaScreen enzyme assay; assay type: biochemical; conditions: 1 µM

C1=C(/c2cncnc2)CCCNCC/1 [TC299423, (E)-5-(pyrimidin-5-yl)-1,2,3,4,7,8-hexahydroazocine]
EC50 (α4-GFPβ2DM nAChRs): 100 ± 20 nM | EC50 (α6-GFPβ2DMβ3 nAChRs; range over patch-clamp recordings and [3H]-dopamine release assays, read-out: EC50 for α6β2* nAChRs): 30 to 60 nM | EC50 (α6-GFPβ2DMβ3 nAChRs; α6β2β3 transfected in Neuro-2a cells, read-out: Patch clamp EC50): 40 ± 10 nM | EC50 (α3β4* nAChRs [1]; read-out: Neurotransmitter release EC50 (converted)): 8000 nM | Emax (α3β4* nAChRs [1]; relative to nicotine, read-out: Neurotransmitter release % Efficacy): 100 ± 16% | 86Rb+ efflux Efficacy (α4β2 (α5KO) nAChRs; Cortex): 169 ± 20% | EC50 (α4β2 (α5KO) nAChRs; Cortex): 2400 ± 700 nM | 86Rb+ efflux Efficacy (α4β2 (α5KO) nAChRs; Thalamus): 166 ± 32% | EC50 (α4β2 (α5KO) nAChRs; Thalamus): 1600 ± 500 nM | Ki (α3β4* nAChRs [2]): 18 ± 0.7 nM | Marbles buried compared with saline (WT mice): significantly fewer marbles | Marbles buried compared with varenicline (WT mice; p < 0.001): fewer marbles | Hit (Adrenergic, Alpha 1B): FALSE | Inhibition (Adrenergic, Alpha 1B; [3H]-7-MeOxy-Prazosin): -8.31% | Hit (Adrenergic, Alpha 2B): FALSE | Inhibition (Adrenergic, Alpha 2B; [3H]MK-912): -14.09% | Hit (GABA-B): FALSE | Inhibition (GABA-B; [3H]CGP 54626A): -2.43% | Hit [3]: FALSE | Inhibition ([3]; [3H]TCP): 7.71% | Hit (Serotonin Transporter): FALSE | Inhibition (Serotonin Transporter; [3H]Citalopram, N-Methyl): 7.03% | Hit (Serotonin, 5HT2C): FALSE | Inhibition (Serotonin, 5HT2C; [3H]Mesulergine): -2.21% | Hit (Calcium Channel, Type N): FALSE | Inhibition (Calcium Channel, Type N; [125I]-Conotoxin GVIA): -0.60% | Hit [4]: TRUE (TC299423 inhibited >50% of the reference radioligand for two sites) | Inhibition ([4]; [3H]Epibatidine): 93.33% | Hit [5]: TRUE (TC299423 inhibited >50% of the reference radioligand for two sites) | Inhibition ([5]; [3H]Glibenclamide): 52.12% | Hit [6]: FALSE | inhibition at 1 µM [7]: 14.5% | Hit (Esterase, Acetylcholine): FALSE | Inhibition (Esterase, Acetylcholine; substrate Acetylthiocholine): 21.55%
